Data: ChEMBL document CHEMBL4507284, “Data for DCP probe BI-1230” (2021)

Tests used:
[1] = molecular target: Maternal embryonic leucine zipper kinase (Homo sapiens) (UniProt Q14680); conditions: Compound concentration 1000.0 nM
[2] = molecular target: Serine/threonine-protein kinase 17A (Homo sapiens) (UniProt Q9UEE5); conditions: Compound concentration 1000.0 nM
[3] = molecular target: Macrophage colony-stimulating factor 1 receptor (Homo sapiens) (UniProt P07333); conditions: Compound concentration 1000.0 nM
[4] = molecular target: 1-phosphatidylinositol 3-phosphate 5-kinase (Homo sapiens) (UniProt Q9Y2I7); conditions: Compound concentration 1000.0 nM
Chain of 1-phosphatidylinositol 3-phosphate 5-kinase (Homo sapiens) (Q9Y2I7 whole entry): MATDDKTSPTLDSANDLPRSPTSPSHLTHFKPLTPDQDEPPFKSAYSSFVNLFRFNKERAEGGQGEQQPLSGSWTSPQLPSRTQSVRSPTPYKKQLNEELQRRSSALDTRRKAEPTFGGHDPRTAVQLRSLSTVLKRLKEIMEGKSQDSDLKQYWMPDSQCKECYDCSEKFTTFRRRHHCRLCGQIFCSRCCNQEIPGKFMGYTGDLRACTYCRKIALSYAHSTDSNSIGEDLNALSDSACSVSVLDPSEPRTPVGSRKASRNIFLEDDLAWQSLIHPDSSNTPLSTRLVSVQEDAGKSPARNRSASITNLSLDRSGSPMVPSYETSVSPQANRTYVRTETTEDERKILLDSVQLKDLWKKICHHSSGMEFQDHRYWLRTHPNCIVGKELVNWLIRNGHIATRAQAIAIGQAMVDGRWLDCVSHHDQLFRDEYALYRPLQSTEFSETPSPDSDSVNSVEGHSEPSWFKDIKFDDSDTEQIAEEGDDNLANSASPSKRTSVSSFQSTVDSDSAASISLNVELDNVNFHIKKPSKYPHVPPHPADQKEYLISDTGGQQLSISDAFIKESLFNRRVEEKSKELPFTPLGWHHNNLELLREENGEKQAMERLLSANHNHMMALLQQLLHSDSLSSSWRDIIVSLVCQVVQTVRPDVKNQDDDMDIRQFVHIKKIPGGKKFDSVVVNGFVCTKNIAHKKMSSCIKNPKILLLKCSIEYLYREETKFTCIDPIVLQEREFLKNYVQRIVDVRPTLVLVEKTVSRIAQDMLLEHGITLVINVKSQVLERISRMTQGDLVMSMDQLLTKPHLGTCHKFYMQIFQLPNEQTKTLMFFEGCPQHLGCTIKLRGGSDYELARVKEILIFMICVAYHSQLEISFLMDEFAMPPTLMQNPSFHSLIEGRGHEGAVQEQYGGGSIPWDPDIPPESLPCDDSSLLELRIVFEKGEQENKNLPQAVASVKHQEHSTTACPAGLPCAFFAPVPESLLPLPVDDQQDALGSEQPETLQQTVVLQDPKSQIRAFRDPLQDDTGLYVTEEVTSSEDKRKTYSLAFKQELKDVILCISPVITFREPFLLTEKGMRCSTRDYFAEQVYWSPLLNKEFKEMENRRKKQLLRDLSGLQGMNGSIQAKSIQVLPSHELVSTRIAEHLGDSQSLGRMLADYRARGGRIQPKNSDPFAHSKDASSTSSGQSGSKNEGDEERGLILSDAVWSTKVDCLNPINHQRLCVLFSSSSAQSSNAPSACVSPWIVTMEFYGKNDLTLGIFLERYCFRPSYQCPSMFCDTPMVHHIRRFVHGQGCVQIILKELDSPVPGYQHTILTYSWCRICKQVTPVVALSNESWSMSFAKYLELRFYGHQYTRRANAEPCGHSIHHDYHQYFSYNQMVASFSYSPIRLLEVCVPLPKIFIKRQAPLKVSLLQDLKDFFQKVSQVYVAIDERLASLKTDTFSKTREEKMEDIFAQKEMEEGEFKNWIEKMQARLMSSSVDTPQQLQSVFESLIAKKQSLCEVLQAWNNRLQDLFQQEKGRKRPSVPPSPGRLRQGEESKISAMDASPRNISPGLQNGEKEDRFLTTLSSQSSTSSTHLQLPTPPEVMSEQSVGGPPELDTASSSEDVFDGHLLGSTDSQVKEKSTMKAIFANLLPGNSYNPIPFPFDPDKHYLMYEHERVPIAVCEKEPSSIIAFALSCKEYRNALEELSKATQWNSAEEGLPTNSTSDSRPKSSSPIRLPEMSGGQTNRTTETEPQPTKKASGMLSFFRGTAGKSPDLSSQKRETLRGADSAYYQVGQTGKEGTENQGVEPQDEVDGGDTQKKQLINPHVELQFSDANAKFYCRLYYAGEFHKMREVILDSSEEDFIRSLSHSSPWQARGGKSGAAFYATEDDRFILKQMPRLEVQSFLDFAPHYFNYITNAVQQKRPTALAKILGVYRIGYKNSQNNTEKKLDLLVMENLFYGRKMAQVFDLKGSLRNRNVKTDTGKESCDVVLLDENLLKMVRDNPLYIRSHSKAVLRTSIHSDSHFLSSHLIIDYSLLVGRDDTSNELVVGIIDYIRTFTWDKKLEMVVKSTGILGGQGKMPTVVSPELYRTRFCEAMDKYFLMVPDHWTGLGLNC

[5] = molecular target: Serine/threonine-protein kinase Nek2 (Homo sapiens) (UniProt P51955); conditions: Compound concentration 1000.0 nM
[6] = molecular target: Proto-oncogene tyrosine-protein kinase ROS (Homo sapiens) (UniProt P08922); conditions: Compound concentration 1000.0 nM
[7] = molecular target: Myosin light chain kinase, smooth muscle (Homo sapiens) (UniProt Q15746); conditions: Compound concentration 1000.0 nM
[8] = molecular target: Inhibitor of nuclear factor kappa-B kinase subunit beta (Homo sapiens) (UniProt O14920); conditions: Compound concentration 1000.0 nM
[9] = molecular target: Dual specificity testis-specific protein kinase 1 (Homo sapiens) (UniProt Q15569); conditions: Compound concentration 1000.0 nM
[10] = molecular target: D(1A) dopamine receptor (Homo sapiens) (UniProt P21728); conditions: Compound concentration 10.0 uM
[11] = molecular target: Tyrosine-protein kinase receptor TYRO3 (Homo sapiens) (UniProt Q06418); conditions: Compound concentration 1000.0 nM
[12] = molecular target: Calcium/calmodulin-dependent protein kinase type 1D (Homo sapiens) (UniProt Q8IU85); conditions: Compound concentration 1000.0 nM
[13] = molecular target: Fibroblast growth factor receptor 2 (Homo sapiens) (UniProt P21802); conditions: Compound concentration 1000.0 nM
[14] = molecular target: Calcium-dependent protein kinase 1 (Plasmodium falciparum) (UniProt P62344); conditions: Compound concentration 1000.0 nM
[15] = molecular target: Mitogen-activated protein kinase kinase kinase 19 (Homo sapiens) (UniProt Q56UN5); conditions: Compound concentration 1000.0 nM
Chain of Mitogen-activated protein kinase kinase kinase 19 (Homo sapiens) (Q56UN5 whole entry): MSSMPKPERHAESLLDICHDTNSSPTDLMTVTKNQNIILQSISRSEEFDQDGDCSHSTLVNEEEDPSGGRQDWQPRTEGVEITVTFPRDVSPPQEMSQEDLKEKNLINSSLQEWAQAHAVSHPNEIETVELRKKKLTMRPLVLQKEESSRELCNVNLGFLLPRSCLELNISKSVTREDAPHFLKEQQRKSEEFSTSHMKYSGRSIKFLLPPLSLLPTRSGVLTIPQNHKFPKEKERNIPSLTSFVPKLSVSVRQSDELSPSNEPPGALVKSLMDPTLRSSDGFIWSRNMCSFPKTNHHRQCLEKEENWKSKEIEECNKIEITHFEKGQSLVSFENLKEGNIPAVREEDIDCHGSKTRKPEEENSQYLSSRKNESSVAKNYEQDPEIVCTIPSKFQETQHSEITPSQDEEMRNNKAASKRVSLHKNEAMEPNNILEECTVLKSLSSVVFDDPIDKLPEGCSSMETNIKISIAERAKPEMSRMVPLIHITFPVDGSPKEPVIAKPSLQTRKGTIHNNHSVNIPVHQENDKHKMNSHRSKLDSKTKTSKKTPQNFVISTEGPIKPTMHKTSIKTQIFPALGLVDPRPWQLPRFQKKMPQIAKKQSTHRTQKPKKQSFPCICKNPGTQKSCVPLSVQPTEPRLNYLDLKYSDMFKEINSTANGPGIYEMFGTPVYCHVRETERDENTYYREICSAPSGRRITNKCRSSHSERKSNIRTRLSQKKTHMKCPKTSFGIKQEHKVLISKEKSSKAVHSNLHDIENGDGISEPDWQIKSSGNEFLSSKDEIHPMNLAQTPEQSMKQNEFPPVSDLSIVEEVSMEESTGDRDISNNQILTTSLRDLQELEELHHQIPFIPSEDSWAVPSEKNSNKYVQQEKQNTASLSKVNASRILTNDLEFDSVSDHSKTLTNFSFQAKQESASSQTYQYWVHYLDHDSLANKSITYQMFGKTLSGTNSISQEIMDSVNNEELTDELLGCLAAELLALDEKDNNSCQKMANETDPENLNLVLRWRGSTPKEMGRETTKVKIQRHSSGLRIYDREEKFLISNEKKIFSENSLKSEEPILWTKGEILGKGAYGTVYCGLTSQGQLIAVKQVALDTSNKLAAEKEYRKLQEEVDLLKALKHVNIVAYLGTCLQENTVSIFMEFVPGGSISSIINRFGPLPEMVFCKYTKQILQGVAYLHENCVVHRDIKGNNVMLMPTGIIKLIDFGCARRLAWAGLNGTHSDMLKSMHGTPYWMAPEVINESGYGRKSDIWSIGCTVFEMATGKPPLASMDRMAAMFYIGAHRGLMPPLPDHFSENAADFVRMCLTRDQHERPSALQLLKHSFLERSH

[16] = molecular target: Calcium/calmodulin-dependent protein kinase kinase 2 (Homo sapiens) (UniProt Q96RR4); conditions: Compound concentration 1000.0 nM
[17] = molecular target: Tyrosine-protein kinase Blk (Homo sapiens) (UniProt P51451); conditions: Compound concentration 1000.0 nM
[18] = molecular target: Dual specificity mitogen-activated protein kinase kinase 3 (Homo sapiens) (UniProt P46734); conditions: Compound concentration 1000.0 nM
[19] = molecular target: Activin receptor type-2A (Homo sapiens) (UniProt P27037); conditions: Compound concentration 1000.0 nM
[20] = molecular target: Serine/threonine-protein kinase Nek5 (Homo sapiens) (UniProt Q6P3R8); conditions: Compound concentration 1000.0 nM
[21] = molecular target: Serine/threonine-protein kinase 4 (Homo sapiens) (UniProt Q13043); conditions: Compound concentration 1000.0 nM
[22] = molecular target: MAP/microtubule affinity-regulating kinase 3 (Homo sapiens) (UniProt P27448); conditions: Compound concentration 1000.0 nM
[23] = molecular target: Serine/threonine-protein kinase DCLK3 (Homo sapiens) (UniProt Q9C098); conditions: Compound concentration 1000.0 nM
[24] = tested on: Tyrosine-protein kinase ABL1 (Homo sapiens), P00519 [M351T]; conditions: Compound concentration 1000.0 nM
[25] = molecular target: Tyrosine-protein kinase ABL1 (Homo sapiens) (UniProt P00519); conditions: Compound concentration 1000.0 nM
[26] = molecular target: Transient receptor potential cation channel subfamily M member 6 (Homo sapiens) (UniProt Q9BX84); conditions: Compound concentration 1000.0 nM
[27] = molecular target: Serine/threonine-protein kinase TBK1 (Homo sapiens) (UniProt Q9UHD2); conditions: Compound concentration 1000.0 nM
[28] = molecular target: 5-hydroxytryptamine receptor 5A (Homo sapiens) (UniProt P47898); conditions: Compound concentration 10.0 uM
[29] = molecular target: Muscarinic acetylcholine receptor M3 (Homo sapiens) (UniProt P20309); conditions: Compound concentration 10.0 uM
[30] = molecular target: Cyclin-dependent kinase 3 (Homo sapiens) (UniProt Q00526); conditions: Compound concentration 1000.0 nM
[31] = molecular target: MAP kinase-activated protein kinase 2 (Homo sapiens) (UniProt P49137); conditions: Compound concentration 1000.0 nM
[32] = molecular target: Myosin light chain kinase 2, skeletal/cardiac muscle (Homo sapiens) (UniProt Q9H1R3); conditions: Compound concentration 1000.0 nM
Chain of Myosin light chain kinase 2, skeletal/cardiac muscle (Homo sapiens) (Q9H1R3 whole entry): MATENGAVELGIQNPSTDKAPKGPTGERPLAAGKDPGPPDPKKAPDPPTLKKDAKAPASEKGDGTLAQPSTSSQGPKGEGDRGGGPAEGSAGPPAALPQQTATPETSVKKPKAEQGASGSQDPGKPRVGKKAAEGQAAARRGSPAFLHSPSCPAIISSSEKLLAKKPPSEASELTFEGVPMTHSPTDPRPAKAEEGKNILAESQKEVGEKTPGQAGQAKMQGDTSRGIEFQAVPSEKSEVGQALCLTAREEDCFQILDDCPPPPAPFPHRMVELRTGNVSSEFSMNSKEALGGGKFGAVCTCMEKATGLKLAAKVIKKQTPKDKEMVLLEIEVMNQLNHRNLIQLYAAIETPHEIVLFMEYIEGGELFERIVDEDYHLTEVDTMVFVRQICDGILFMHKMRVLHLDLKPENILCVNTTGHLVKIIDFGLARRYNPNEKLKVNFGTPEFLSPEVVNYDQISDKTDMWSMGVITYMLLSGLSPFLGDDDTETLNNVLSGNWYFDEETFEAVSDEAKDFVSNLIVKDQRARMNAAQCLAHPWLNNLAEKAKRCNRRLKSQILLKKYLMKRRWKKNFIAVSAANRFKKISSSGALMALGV

[33] = molecular target: Vascular endothelial growth factor receptor 3 (Homo sapiens) (UniProt P35916); conditions: Compound concentration 1000.0 nM
[34] = molecular target: Serine/threonine-protein kinase 32C (Homo sapiens) (UniProt Q86UX6); conditions: Compound concentration 1000.0 nM
[35] = molecular target: Tyrosine-protein kinase FRK (Homo sapiens) (UniProt P42685); conditions: Compound concentration 1000.0 nM
[36] = molecular target: Alpha-2C adrenergic receptor (Homo sapiens) (UniProt P18825); conditions: Compound concentration 10.0 uM
[37] = molecular target: Cyclin-dependent kinase-like 1 (Homo sapiens) (UniProt Q00532); conditions: Compound concentration 1000.0 nM
[38] = molecular target: AP2-associated protein kinase 1 (Homo sapiens) (UniProt Q2M2I8); conditions: Compound concentration 1000.0 nM
[39] = molecular target: Phosphatidylinositol 4,5-bisphosphate 3-kinase catalytic subunit beta isoform (Homo sapiens) (UniProt P42338); conditions: Compound concentration 1000.0 nM
Chain of Phosphatidylinositol 4,5-bisphosphate 3-kinase catalytic subunit beta isoform (Homo sapiens) (P42338 whole entry, looked up, canonical isoform): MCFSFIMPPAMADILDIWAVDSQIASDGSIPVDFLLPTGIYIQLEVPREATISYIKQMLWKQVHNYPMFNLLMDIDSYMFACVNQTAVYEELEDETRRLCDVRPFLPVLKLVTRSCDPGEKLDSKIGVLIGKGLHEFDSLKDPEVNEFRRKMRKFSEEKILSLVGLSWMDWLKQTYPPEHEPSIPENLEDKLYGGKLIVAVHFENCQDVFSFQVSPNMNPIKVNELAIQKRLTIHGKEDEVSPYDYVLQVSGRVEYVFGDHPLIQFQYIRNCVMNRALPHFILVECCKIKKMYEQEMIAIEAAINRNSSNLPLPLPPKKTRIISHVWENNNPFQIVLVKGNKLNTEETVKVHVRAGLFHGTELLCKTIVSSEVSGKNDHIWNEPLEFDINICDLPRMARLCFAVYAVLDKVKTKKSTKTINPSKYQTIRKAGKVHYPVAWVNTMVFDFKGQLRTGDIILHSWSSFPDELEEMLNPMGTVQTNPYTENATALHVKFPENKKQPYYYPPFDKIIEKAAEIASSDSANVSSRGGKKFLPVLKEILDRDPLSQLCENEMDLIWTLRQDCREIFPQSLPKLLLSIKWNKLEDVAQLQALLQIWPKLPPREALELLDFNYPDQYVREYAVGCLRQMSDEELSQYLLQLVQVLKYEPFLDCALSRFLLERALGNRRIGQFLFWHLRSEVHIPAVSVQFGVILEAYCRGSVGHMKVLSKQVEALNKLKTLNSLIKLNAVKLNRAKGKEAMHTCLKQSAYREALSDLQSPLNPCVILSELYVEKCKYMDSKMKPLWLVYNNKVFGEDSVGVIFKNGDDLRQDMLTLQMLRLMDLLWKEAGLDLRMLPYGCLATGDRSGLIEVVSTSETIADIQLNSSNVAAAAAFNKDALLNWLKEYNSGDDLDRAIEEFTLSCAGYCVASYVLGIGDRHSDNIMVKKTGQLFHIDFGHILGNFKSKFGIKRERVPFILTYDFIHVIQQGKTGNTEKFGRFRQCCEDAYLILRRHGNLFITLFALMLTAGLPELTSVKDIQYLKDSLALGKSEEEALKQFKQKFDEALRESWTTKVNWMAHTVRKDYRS

[40] = molecular target: Serine/threonine-protein kinase VRK2 (Homo sapiens) (UniProt Q86Y07); conditions: Compound concentration 1000.0 nM
[41] = molecular target: Serine/threonine-protein kinase 32B (Homo sapiens) (UniProt Q9NY57); conditions: Compound concentration 1000.0 nM
[42] = molecular target: Serine/threonine-protein kinase Nek4 (Homo sapiens) (UniProt P51957); conditions: Compound concentration 1000.0 nM
[43] = molecular target: Dual specificity protein kinase CLK4 (Homo sapiens) (UniProt Q9HAZ1); conditions: Compound concentration 1000.0 nM
[44] = molecular target: Death-associated protein kinase 2 (Homo sapiens) (UniProt Q9UIK4); conditions: Compound concentration 1000.0 nM
[45] = molecular target: Mast/stem cell growth factor receptor Kit (Homo sapiens) (UniProt P10721); conditions: Compound concentration 1000.0 nM

`COc1ccc2c(O[C@@H]3C[C@H]4C(=O)N[C@]5(C(=O)O)CC5/C=C\CCCCC[C@H](NC(=O)OC5CCCC5)C(=O)N4C3)cc(-c3csc(NC(=O)C(C)C)n3)nc2c1C` (stereo not given in full) [BI 1230] gave a residual activity [1] of 44%, a residual activity [2] of 99% and a residual activity [3] of 89%. The residual activity [4] was 100%, the residual activity [5] was 94% and the residual activity [6] was 100%. For the same compound, the residual activity [7] was 78%, the residual activity [8] was 83% and the residual activity [9] was 91%. It also gave an inhibition [10] of 46.3%, a residual activity [11] of 100% and a residual activity [12] of 100%. It also gave a residual activity [13] of 96%, a residual activity [14] of 100% and a residual activity [15] of 70%. The residual activity [16] was 100%, the residual activity [17] was 97% and the residual activity [18] was 82%. The residual activity [19] was 72%, the residual activity [20] was 98% and the residual activity [21] was 100%. For the same compound, the residual activity [22] was 95%, the residual activity [23] was 96% and the residual activity [24] was 90%. It also gave a residual activity [25] of 93%, a residual activity [26] of 100% and a residual activity [27] of 86%. It also gave an inhibition [28] of 22.1%, an inhibition [29] of 0.21% and a residual activity [30] of 100%. It also gave a residual activity [31] of 60%, a residual activity [32] of 100% and a residual activity [33] of 100%. It also gave a residual activity [34] of 63%, a residual activity [35] of 100% and an inhibition [36] of 56.8%. It also gave a residual activity [37] of 99%, a residual activity [38] of 100% and a residual activity [39] of 62%. The residual activity [40] was 79%, the residual activity [41] was 100% and the residual activity [42] was 93%. It also gave a residual activity [43] of 100%, a residual activity [44] of 100% and a residual activity [45] of 100%.
Compound `O=C(N[C@H]1CCCCC/C=C\C2C[C@@]2(C(=O)O)NC(=O)[C@@H]2C[C@@H](Oc3ccncc3)CN2C1=O)OC1CCCC1` (stereo not given in full) [BI 1675] has a residual activity [1] of 84%, a residual activity [2] of 100% and a residual activity [3] of 92%. It also gave a residual activity [4] of 100%, a residual activity [5] of 94% and a residual activity [6] of 92%. For the same compound, the residual activity [7] was 100%, the residual activity [8] was 91% and the residual activity [9] was 97%. It also gave an inhibition [10] of -4.18%, a residual activity [11] of 100% and a residual activity [12] of 94%. For the same compound, the residual activity [13] was 79%, the residual activity [14] was 73% and the residual activity [15] was 93%. The residual activity [16] was 95%, the residual activity [17] was 63% and the residual activity [18] was 80%. It also gave a residual activity [19] of 96%, a residual activity [20] of 91% and a residual activity [21] of 100%. The residual activity [22] was 100%, the residual activity [23] was 100% and the residual activity [24] was 89%. For the same compound, the residual activity [25] was 97%, the residual activity [26] was 98% and the residual activity [27] was 100%. The inhibition [28] was 1.81%, the inhibition [29] was -5.57% and the residual activity [30] was 100%. The residual activity [31] was 89%, the residual activity [32] was 100% and the residual activity [33] was 93%. It also gave a residual activity [34] of 100%, a residual activity [35] of 100% and an inhibition [36] of -4.47%. It also gave a residual activity [37] of 100%, a residual activity [38] of 77% and a residual activity [39] of 100%. The residual activity [40] was 100%, the residual activity [41] was 99% and the residual activity [42] was 79%. It also gave a residual activity [43] of 93%, a residual activity [44] of 100% and a residual activity [45] of 91%.
